The target in one assay is T1, human NPR1 (Homo sapiens, UniProt P16066).
T1 construct: host or cells: CHO-K1
T1 sequence (P16066 33-1061): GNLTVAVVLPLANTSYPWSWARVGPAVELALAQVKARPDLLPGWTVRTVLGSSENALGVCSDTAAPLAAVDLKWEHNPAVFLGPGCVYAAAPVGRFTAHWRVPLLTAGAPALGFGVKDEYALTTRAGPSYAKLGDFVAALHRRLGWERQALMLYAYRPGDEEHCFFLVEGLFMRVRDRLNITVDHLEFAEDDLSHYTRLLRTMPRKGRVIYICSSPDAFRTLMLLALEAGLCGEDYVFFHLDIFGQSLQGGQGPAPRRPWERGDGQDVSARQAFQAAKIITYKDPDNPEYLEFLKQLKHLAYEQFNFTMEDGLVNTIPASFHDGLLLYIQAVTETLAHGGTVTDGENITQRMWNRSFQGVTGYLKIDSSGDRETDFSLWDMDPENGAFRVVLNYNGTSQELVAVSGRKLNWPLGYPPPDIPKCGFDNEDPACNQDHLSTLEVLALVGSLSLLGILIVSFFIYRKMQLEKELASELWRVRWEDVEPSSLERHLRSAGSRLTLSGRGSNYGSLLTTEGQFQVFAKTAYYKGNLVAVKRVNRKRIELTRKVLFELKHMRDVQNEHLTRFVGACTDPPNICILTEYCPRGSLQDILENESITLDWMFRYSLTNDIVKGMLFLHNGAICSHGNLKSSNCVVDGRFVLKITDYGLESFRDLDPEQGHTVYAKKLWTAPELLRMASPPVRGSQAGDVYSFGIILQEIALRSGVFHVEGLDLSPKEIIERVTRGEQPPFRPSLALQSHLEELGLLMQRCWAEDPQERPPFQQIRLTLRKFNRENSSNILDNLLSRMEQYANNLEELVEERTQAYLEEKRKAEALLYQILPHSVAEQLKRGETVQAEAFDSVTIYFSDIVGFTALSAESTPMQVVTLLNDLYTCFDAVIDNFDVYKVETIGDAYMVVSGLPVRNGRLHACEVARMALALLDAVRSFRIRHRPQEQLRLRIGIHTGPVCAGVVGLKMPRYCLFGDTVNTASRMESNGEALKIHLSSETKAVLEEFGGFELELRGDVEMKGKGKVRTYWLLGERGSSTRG
Put plainly: Cellular cGMP production assay, human NPR1 expressing CHO-K1 cells (CisBio HTRF). Particulars: for AC50: cGMP production, 30 min at 37° C., 12-point dose-response from 30 μM; for Human NPR1 Amax (% of ANP): maximum cGMP production as percentage of the maximum cGMP produced with ANP. The format is cell-based. The procedure, abridged: (§1)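 CHO-K1 cells expressing human or cynomolgus NPR1 treated with compound (12-point, 3-fold dilutions from 30 μM top) in PBS+0.1% BSA with 1 mM IBMX, 30 min at 37° C. After lysis, cGMP quantified by HTRF competition (cGMP-d2/anti-cGMP-cryptate, 1 h RT, 665 nm emission) against a calibrator standard curve.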

The next assay has as its target monkey NPR1 (Macaca fascicularis, UniProt A0A7N9DBT9). Briefly: Cellular cGMP production assay, monkey NPR1 expressing CHO-K1 cells (CisBio HTRF). The format is cell-based. Particulars: for Monkey NPR1 Amax (% of ANP): maximum cGMP production as percentage of the maximum cGMP produced with ANP. In outline: as §1
(In general: Time-resolved FRET reads energy transfer from a long-lived donor to a nearby acceptor.)

Setting [1] is: cGMP production, monkey NPR1 CHO-K1 cells, 30 min at 37° C., 12-point dose-response from 30 μM, read-out: Monkey NPR1 AC50.

Read-outs that look alike come from different tables or passages of the source.

monkey NPR1, sequence (A0A7N9DBT9 entry or part of it): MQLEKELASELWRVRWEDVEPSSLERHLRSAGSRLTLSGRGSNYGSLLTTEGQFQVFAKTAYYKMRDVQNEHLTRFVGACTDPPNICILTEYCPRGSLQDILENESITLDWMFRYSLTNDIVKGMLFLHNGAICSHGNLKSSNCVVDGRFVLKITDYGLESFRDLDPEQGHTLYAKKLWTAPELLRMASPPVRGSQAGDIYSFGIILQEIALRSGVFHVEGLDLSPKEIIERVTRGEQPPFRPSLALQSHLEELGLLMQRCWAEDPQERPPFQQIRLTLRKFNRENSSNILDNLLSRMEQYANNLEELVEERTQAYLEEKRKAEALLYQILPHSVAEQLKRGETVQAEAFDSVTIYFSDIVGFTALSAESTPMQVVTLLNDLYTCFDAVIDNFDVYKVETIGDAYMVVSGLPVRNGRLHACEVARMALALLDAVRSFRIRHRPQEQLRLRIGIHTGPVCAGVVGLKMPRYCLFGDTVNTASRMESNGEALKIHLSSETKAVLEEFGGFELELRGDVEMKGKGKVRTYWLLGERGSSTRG

In general, AC50 refers to the midpoint of the concentration-response curve, whichever way the signal moves. With `CC[C@H]([C@H]1CC[C@H](C(=O)O)CC1)N(C)c1nc2c(c(N[C@@H](CN3C4CCCC3CCC4)c3cnn(CC)c3)n1)C[C@H](c1ccccc1)CC2` [Compound 92, (1R,4r)-4-((R)-1-(((R)-4-(((R)-2-((1S,5S)-9-azabicyclo[3.3.1]nonan-9-yl)-1-(1-ethyl-1H-pyrazol-4-yl)ethyl)amino)-6-phenyl-5,6,7,8-tetrahydroquinazolin-2-yl)(methyl)amino)propyl)cyclohexane-1-carboxylic acid], on human NPR1, the activity was half-maximal at 317 nM (AC50) and the “Human NPR1 Amax (% of ANP)” value is 99.678 % of ANP. On monkey NPR1, this molecule yielded a concentration at half-maximal activity (AC50) of 249 nM. The “Monkey NPR1 Amax (% of ANP)” value at monkey NPR1 (monkey NPR1 CHO-K1 cells) is recorded as 99.824 % of ANP.
In the case of `CC[C@@H](Nc1nc2c(c(N[C@@H](CN(C)C)c3ccccc3)n1)C[C@H](c1ccccc1)CC2)[C@H]1CC[C@H](C(=O)O)CC1` [Compound 165, (1R,4r)-4-((R)-1-(((R)-4-(((R)-2-(dimethylamino)-1-phenylethyl)amino)-6-phenyl-5,6,7,8-tetrahydroquinazolin-2-yl)amino)propyl)cyclohexane-1-carboxylic acid], on human NPR1, the AC50 turned out to be 1810 nM and the “Human NPR1 Amax (% of ANP)” value is on record as 90.595 % of ANP. For the same molecule, the concentration at half-maximal activity (AC50) on monkey NPR1 (setting [1]) is 1080 nM. The “Monkey NPR1 Amax (% of ANP)” value at monkey NPR1 (monkey NPR1 CHO-K1 cells) was 87.861 % of ANP.
In the same order, the values of `CC[C@@H](N(C)c1nc2c(c(N[C@@H](CN3CCCCCC3)c3cnn(C)c3)n1)C[C@H](c1cccc(F)c1)CC2)C12CC(C(=O)O)(C1)C2` [Compound 1, 3-((R)-1-(((R)-4-(((R)-2-(azepan-1-yl)-1-(1-methyl-1H-pyrazol-4-yl)ethyl)amino)-6-(3-fluorophenyl)-5,6,7,8-tetrahydroquinazolin-2-yl)(methyl)amino)propyl)bicyclo[1.1.1]pentane-1-carboxylic acid] are 14 nM, 93.788 % of ANP, 10 nM and 97.462 % of ANP.
For `CC[C@H]([C@H]1CC[C@H](C(=O)O)CC1)N(C)c1nc2c(c(N[C@@H](CN3C4CCCC3CC(O)C4)c3cnn(CC)c3)n1)C[C@H](c1cccc(F)c1)CC2` (stereo partly drawn) [Compound 79, (1R,4r)-4-((1R)-1-(((6R)-4-(((1R)-1-(1-ethyl-1H-pyrazol-4-yl)-2-((1R,5S)-3-hydroxy-9-azabicyclo[3.3.1]nonan-9-yl)ethyl)amino)-6-(3-fluorophenyl)-5,6,7,8-tetrahydroquinazolin-2-yl)(methyl)amino)propyl)cyclohexane-1-carboxylic acid], on human NPR1, the activity was half-maximal at 257 nM (AC50) and the “Human NPR1 Amax (% of ANP)” value is 101.351 % of ANP. This molecule registered a concentration at half-maximal activity (AC50) on monkey NPR1 of 327 nM. Also, the “Monkey NPR1 Amax (% of ANP)” value at monkey NPR1 (monkey NPR1 CHO-K1 cells) is listed as 104.610 % of ANP.
Regarding `CC[C@@H](N(C)c1nc2c(c(N[C@@H](CN3C4CCCC3CCC4)c3cnn(C)c3C)n1)C[C@H](c1cccc(F)c1)CC2)C12CC(C(=O)O)(C1)C2` [Compound 89, 3-((R)-1-(((R)-4-(((R)-2-((1S,5S)-9-azabicyclo[3.3.1]nonan-9-yl)-1-(1,5-dimethyl-1H-pyrazol-4-yl)ethyl)amino)-6-(3-fluorophenyl)-5,6,7,8-tetrahydroquinazolin-2-yl)(methyl)amino)propyl)bicyclo[1.1.1]pentane-1-carboxylic acid], at human NPR1, the AC50 amounted to 309 nM and the “Human NPR1 Amax (% of ANP)” value was 98.816 % of ANP. The molecule also yielded a concentration at half-maximal activity (AC50) at monkey NPR1 of 268 nM. Further, the “Monkey NPR1 Amax (% of ANP)” value at monkey NPR1 (monkey NPR1 CHO-K1 cells) is on record as 103.084 % of ANP.
As to `CC[C@@H](N(C)c1nc2c(c(N[C@@H](CN3CCC[C@H](C)C3)c3ccnn3C)n1)C[C@H](c1cccc(F)c1)CC2)C12CC(C(=O)O)(C1)C2` [Compound 155, 3-((R)-1-(((R)-6-(3-fluorophenyl)-4-(((S)-1-(1-methyl-1H-pyrazol-5-yl)-2-((S)-3-methylpiperidin-1-yl)ethyl)amino)-5,6,7,8-tetrahydroquinazolin-2-yl)(methyl)amino)propyl)bicyclo[1.1.1]pentane-1-carboxylic acid], the AC50 was 1290 nM on human NPR1 and 648 nM at monkey NPR1 (setting [1]). Besides, the “Human NPR1 Amax (% of ANP)” value at human NPR1 was 97.313 % of ANP. In addition, the “Monkey NPR1 Amax (% of ANP)” value on monkey NPR1 (monkey NPR1 CHO-K1 cells) was 95.840 % of ANP.
As for `CC[C@@H](N(C)c1nc2c(c(N[C@@H](CN3C4CCCC3CC4)c3cnn(C)c3)n1)C[C@H](c1ccc(F)cc1)CC2)C12CC(C(=O)O)(C1)C2` [Compound 25, 3-((1R)-1-(((6R)-4-(((1R)-2-(8-azabicyclo[3.2.1]octan-8-yl)-1-(1-methyl-1H-pyrazol-4-yl)ethyl)amino)-6-(4-fluorophenyl)-5,6,7,8-tetrahydroquinazolin-2-yl)(methyl)amino)propyl)bicyclo[1.1.1]pentane-1-carboxylic acid], on human NPR1, half-maximal activity (AC50) was put at 126 nM and the “Human NPR1 Amax (% of ANP)” value is 102.816 % of ANP. This molecule came in with a half-maximal activity concentration (AC50) on monkey NPR1 of 108 nM. For the same molecule, the “Monkey NPR1 Amax (% of ANP)” value on monkey NPR1 (monkey NPR1 CHO-K1 cells) is on record as 106.072 % of ANP.
For the molecule `CC[C@@H](Nc1nc2c(c(N[C@@H](CN3C[C@H]4CC[C@@H]3C4)c3cnn(CC)c3)n1)C[C@H](c1ccccc1)CC2)[C@H]1CC[C@H](C(=O)O)CC1` [Compound 122, (1R,4r)-4-((R)-1-(((R)-4-(((R)-2-((1R,4S)-2-azabicyclo[2.2.1]heptan-2-yl)-1-(1-ethyl-1H-pyrazol-4-yl)ethyl)amino)-6-phenyl-5,6,7,8-tetrahydroquinazolin-2-yl)amino)propyl)cyclohexane-1-carboxylic acid], the values for the AC50 at human NPR1 and at monkey NPR1 (setting [1]) were 574 nM and 411 nM, respectively. Also, the “Human NPR1 Amax (% of ANP)” value on human NPR1 is 102.209 % of ANP. In addition, at monkey NPR1 (monkey NPR1 CHO-K1 cells), the “Monkey NPR1 Amax (% of ANP)” value is 99.605 % of ANP.
In the same order, the values of `CC[C@H]([C@H]1CC[C@H](C(=O)O)CC1)N(C)c1nc2c(c(N[C@@H](CN3CCCC[C@H]3CO)c3cnn(CC)c3)n1)C[C@H](c1cccc(F)c1)CC2` [Compound 135, (1R,4r)-4-((R)-1-(((R)-4-(((R)-1-(1-ethyl-1H-pyrazol-4-yl)-2-((S)-2-(hydroxymethyl)piperidin-1-yl)ethyl)amino)-6-(3-fluorophenyl)-5,6,7,8-tetrahydroquinazolin-2-yl)(methyl)amino)propyl)cyclohexane-1-carboxylic acid] are 805 nM, 604 nM, 94.757 % of ANP and 99.242 % of ANP.
As for `CC[C@H]([C@H]1CC[C@H](C(=O)O)CC1)N(C)c1nc2c(c(N[C@@H](CN3C4CCC3CC4)c3cnn(C)c3)n1)C[C@H](c1ccc(F)cc1)CC2` [Compound 63, (1R,4r)-4-((R)-1-(((R)-4-(((R)-2-(7-azabicyclo[2.2.1]heptan-7-yl)-1-(1-methyl-1H-pyrazol-4-yl)ethyl)amino)-6-(4-fluorophenyl)-5,6,7,8-tetrahydroquinazolin-2-yl)(methyl)amino)propyl)cyclohexane-1-carboxylic acid], on human NPR1, the AC50 worked out at 210 nM and the “Human NPR1 Amax (% of ANP)” value was 100.629 % of ANP. On monkey NPR1, this molecule showed a half-maximal activity concentration (AC50) of 196 nM. Moreover, the “Monkey NPR1 Amax (% of ANP)” value at monkey NPR1 (monkey NPR1 CHO-K1 cells) was 99.684 % of ANP.

The values above are taken from patent US12129246B1, “Hydroquinazoline derivatives for the treatment of a disease or disorder” (Novartis AG, priority 2023, dated 2024).
